Results: PMC8097444 (Antimicrobial Agents and Chemotherapy, 2021)
Where two headings read alike, the source gives them in different places.

Experiments:
SARS-CoV-2 3CL^pro = SARS-CoV-2 3CL^pro (Severe acute respiratory syndrome coronavirus 2, UniProt P0DTD1); assay: SARS-CoV-2 3CLpro fluorogenic; assay type: biochemical; conditions: for inhibition of 3CL^pro in screen: 10 μM drug, hit of 1,068 or 2,701 FDA-approved drug collection
COVID-19 patients = conditions: cited from earlier work
SARS-CoV-2 = conditions: cited from earlier work
[1] = test system: SARS-CoV-2 in human lung cells; conditions: in vitro assay; cited from earlier work
SARS-CoV-2 virus = assay type: cell-based; conditions: for selectivity index (SI): derived from CC50 and EC50
SARS-CoV-2 PL^pro = SARS-CoV-2 PL^pro (Severe acute respiratory syndrome coronavirus 2, UniProt P0DTD1); assay: SARS-CoV-2 PLpro fluorogenic inhibition assay: screening at 10 μM and IC50; assay type: biochemical
SARS-CoV = conditions: read-out: EC50 against SARS-CoV; cited from earlier work
[2] = read-out: EC50 against SARS-CoV-2 in vitro

For CC(C)(C)NC(=O)N[C@H](C(=O)N1C[C@H]2[C@@H]([C@H]1C(=O)NC(CC1CCC1)C(=O)C(N)=O)C2(C)C)C(C)(C)C (stereo partly drawn) [Boceprevir], the “inhibition of 3CL^pro in screen” value (SARS-CoV-2 3CL^pro) was “active at 10 μM”.

With O=c1c2ccccc2[se]n1-c1ccccc1 [Ebselen] the “inhibition of 3CL^pro in screen” value (SARS-CoV-2 3CL^pro) was “active at 10 μM”.

In the case of CCC(CC)COC(=O)[C@H](C)N[P@](=O)(OC[C@H]1O[C@@](C#N)(c2ccc3c(N)ncnn23)[C@H](O)[C@@H]1O)Oc1ccccc1 [Remdesivir], the “benefit in clinical trials on COVID-19 patients” value (COVID-19 patients) is given as 68% and the EC50 (SARS-CoV-2; read-out: EC50, SARS-CoV-2 viral replication) is given as 0.7 µM.

For CCN(CC)CCCC(C)Nc1ccnc2cc(Cl)ccc12 (stereo not drawn) [chloroquine], the EC50 (SARS-CoV-2; [2]) is given as 1.13 µM and the “inhibitory effects on SARS-CoV-2 in human lung cells” value [1] is given as “no inhibitory effects”.

For NC(=O)c1nc(F)c[nH]c1=O [favipiravir], the “inhibition of SARS-CoV-2 replication” value (SARS-CoV-2) is listed as “weak inhibition”.

For CCN(CCO)CCCC(C)Nc1ccnc2cc(Cl)ccc12 (stereo not drawn) [hydroxychloroquine], the “clinical benefit against COVID-19” value (COVID-19 patients) is listed as “no clinical benefit” and the “inhibition of SARS-CoV-2 in vitro” value (SARS-CoV-2) is listed as “shown to inhibit SARS-CoV-2 in vitro”.

For N[C@@H](Cc1cc(I)c(Oc2cc(I)c(O)c(I)c2)c(I)c1)C(=O)O [levothyroxine], the “inhibition of virus, postentry treatment” value (SARS-CoV-2 virus) was “postentry treatment could not inhibit the virus”, the “reduction of viral plaques, full-time treatment” value (“reduction of viral plaques” for short) (SARS-CoV-2 virus) was “effective in reducing viral plaques” and the “selectivity index (SI)” value (SARS-CoV-2 virus) was greater than 14.3. It also gave an IC50 (SARS-CoV-2 PL^pro) of 15.3 ± 4.2 µM and an IC50 (SARS-CoV-2 3CL^pro) of 19.2 ± 1.2 µM.

With CN(C)C(=O)C(CCN1CCC(O)(c2ccc(Cl)cc2)CC1)(c1ccccc1)c1ccccc1 [loperamide] the “inhibition of virus, postentry treatment” value (SARS-CoV-2 virus) was “postentry treatment could still inhibit the virus”, the “reduction of viral plaques” value (SARS-CoV-2 virus) was “effective in reducing viral plaques” and the “antiviral activity, entry step” value (SARS-CoV-2 virus; entry treatment) was “not the entry step”.

With COC(=O)C1=C(C)NC(C)=C(C(=O)OCCN2CCN(C(c3ccccc3)c3ccccc3)CC2)C1c1cccc([N+](=O)[O-])c1 (stereo not drawn) [manidipine-2HCl] the “inhibition of virus, postentry treatment” value (SARS-CoV-2 virus) was “postentry treatment could still inhibit the virus”, the “reduction of viral plaques” value (SARS-CoV-2 virus) was “effective in reducing viral plaques” and the “selectivity index (SI)” value (SARS-CoV-2 virus) was greater than 6.9. For the same molecule, the IC50 (SARS-CoV-2 PL^pro) was 14.2 ± 1.7 µM and the IC50 (SARS-CoV-2 3CL^pro) was 10.4 ± 1.6 µM.

In the case of CNCCCC12CCC(c3ccccc31)c1ccccc12 [maprotiline], the “antiviral activity, entry step” value (SARS-CoV-2 virus) is reported as “not the entry step”, the “inhibition of virus, postentry treatment” value (SARS-CoV-2 virus) is reported as “postentry treatment could still inhibit the virus” and the “reduction of viral plaques” value (SARS-CoV-2 virus) is reported as “effective in reducing viral plaques”.

In the case of Nc1nc2c(ncn2CCC(CO)CO)c(=O)[nH]1 [penciclovir], the “inhibition of SARS-CoV-2 replication” value (SARS-CoV-2) is listed as “weak inhibition”.

For COC(=O)[C@H]1[C@H]2C[C@@H]3c4[nH]c5cc(OC)ccc5c4CCN3C[C@H]2C[C@@H](OC(=O)c2cc(OC)c(OC)c(OC)c2)[C@@H]1OC [reserpine], the “reduction of viral plaques” value (SARS-CoV-2 virus) was “effective in reducing viral plaques”, the “selectivity index (SI)” value (SARS-CoV-2 virus) was greater than 15.2 and the IC50 (SARS-CoV-2 PL^pro) was 5.7 ± 0.7 µM. For the same molecule, the EC50 (SARS-CoV) was 3.4 µM.

For NC(=O)c1ncn([C@@H]2O[C@H](CO)[C@@H](O)[C@H]2O)n1 [ribavirin], the “inhibition of SARS-CoV-2 replication” value (SARS-CoV-2) is listed as “weak inhibition”.

For Cc1ccc(C(=O)c2cc(O)c(O)c([N+](=O)[O-])c2)cc1 [tolcapone], the “antiviral activity (figure not shown)” value (SARS-CoV-2 virus; tolcapone) was “weak antiviral activity only at 50 μM”, the IC50 (SARS-CoV-2 3CL^pro) was 7.9 µM and the “inhibition of 3CL^pro in screen” value (SARS-CoV-2 3CL^pro) was “active at 10 μM”.

In the case of ivermectin, the EC50 (SARS-CoV-2; [2]) is given as 2.5 µM.

For lopinavir/ritonavir, the “inhibition of SARS-CoV-2 replication” value (SARS-CoV-2) is listed as “weak inhibition”.
